Test results reported in patent US9073892B2, “Indazolyl triazol derivatives” (Merck Serono S.A., priority 2010, dated 2015).
Structures can show the parent of a compound that is named as a salt.

tested on: T1, IRAK1/4 human; assay: IRAK1/4 phosphorylation IC50 (enzymatic assay, table 2); type: biochemical; conditions: human IRAK1/4 phosphorylation
T1 construct: fused on or other part: His tag and TEV cleavage site at the N-terminus
Method in brief: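 His-TEV-tagged human IRAK-1 or IRAK-4 (IRAK-4 with STK1-biotin peptide) was incubated in 384-well plates with ATP and compounds in DMSO from 20 µM to 1 nM, with 2% DMSO controls. The buffer was Hepes pH7.0 50 mM with MgCl2, DTT, EGTA and BSA, and reactions ran 2 or 3 hours. Inhibition was reported as IC50.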

First: c1ccc2c(-c3cn(-c4ccc([C@@H]5C[C@H]6CC[C@@H](C5)N6C5CCCCC5)cc4)nn3)n[nH]c2c1 (single isomer, unassigned) [Example 151, 3-(1-{4-[(3-exo)-8-cyclohexyl-8-azabicyclo[3.2.1]oct-3-yl]phenyl}-1H-1,2,3-triazol-4-yl)-1H-indazole]
Second: c1ccc2c(-c3cn(-c4ccc([C@H]5C[C@H]6CC[C@@H](C5)N6C5CCCCC5)cc4)nn3)n[nH]c2c1 (single isomer, unassigned) [Example 152, 3-(1-{4-[(3-endo)-8-cyclohexyl-8-azabicyclo[3.2.1]oct-3-yl]phenyl}-1H-1,2,3-triazol-4-yl)-1H-indazole]
The IC50 of the first is lower: under 100 nM for the first, 100 to 1000 nM for the second. The first is the more potent here.

`NCc1ccc(-n2cc(-c3n[nH]c4ccccc34)nn2)cc1` [Example 12, 1-{4-[4-(1H-indazol-3-yl)-1H-1,2,3-triazol-1-yl]phenyl}methanamine] and `O=C(NCc1ccc(-n2cc(-c3n[nH]c4ccccc34)nn2)cc1)C1CCCC1` [Example 13, N-{4-[4-(1H-indazol-3-yl)-1H-1,2,3-triazol-1-yl]benzyl}cyclopentanecarboxamide] fall in the same range of IC50: 1000 to 5000 nM for the first, 1000 to 5000 nM for the second.

First: O=C(CN1CCOCC1)NCc1ccc(-n2cc(-c3n[nH]c4ccccc34)nn2)cc1 [Example 16, N-{4-[4-(1H-indazol-3-yl)-1H-1,2,3-triazol-1-yl]benzyl}-2-morpholin-4-ylacetamide]
Second: O=C(Cc1ccc(-n2cc(-c3n[nH]c4ccccc34)nn2)cc1)N1CCOCC1 [Example 18, 3-{1-[4-(2-morpholin-4-yl-2-oxoethyl)phenyl]-1H-1,2,3-triazol-4-yl}-1H-indazole]
The IC50 of the first is higher: 1000 to 5000 nM for the first, 100 to 1000 nM for the second. The second is the more potent here.

Compared with `O=C(NCc1ccc(-n2cc(-c3n[nH]c4ccccc34)nn2)cc1)C1CCOCC1` [Example 17, N-{4-[4-(1H-indazol-3-yl)-1H-1,2,3-triazol-1-yl]benzyl}tetrahydro-2H-pyran-4-carboxamide], `O=C(NCC1CCCO1)c1ccc(-n2cc(-c3n[nH]c4ccccc34)nn2)cc1` (stereo not shown) [Example 45, 4-[4-(1H-indazol-3-yl)-1H-1,2,3-triazol-1-yl]-N-(tetrahydrofuran-2-ylmethyl)benzamide] is lower in IC50: 1000 to 5000 nM for the first, 100 to 1000 nM for the second. The second is the more potent here.

`c1ccc2c(-c3cn(-c4ccc(N5CCOCC5)nc4)nn3)n[nH]c2c1` [Example 20, 3-[1-(6-morpholin-4-ylpyridin-3-yl)-1H-1,2,3-triazol-4-yl]-1H-indazole] and `O=C(c1ccc(-n2cc(-c3n[nH]c4ccccc34)nn2)c(F)c1)N1CCOCC1` [Example 102, 3-{1-[2-fluoro-4-(morpholin-4-ylcarbonyl)phenyl]-1H-1,2,3-triazol-4-yl}-1H-indazole] fall in the same range of IC50: 1000 to 5000 nM for the first, 1000 to 5000 nM for the second.

First: CN1CCN(C(=O)CCc2ccc(-n3cc(-c4n[nH]c5ccccc45)nn3)cc2)CC1 [Example 24, 3-(1-{4-[3-(4-methylpiperazin-1-yl)-3-oxopropyl]phenyl}-1H-1,2,3-triazol-4-yl)-1H-indazole]
Second: CN1CCN(C(=O)Cc2ccc(-n3cc(-c4n[nH]c5ccccc45)nn3)cc2)CC1 [Example 70]
The IC50 of the first is higher: 1000 to 5000 nM for the first, 100 to 1000 nM for the second. The second is the more potent here.

`CS(=O)(=O)N1CCN(C(=O)c2ccc(-n3cc(-c4n[nH]c5ccccc45)nn3)cc2)CC1` [Example 41, 3-[1-(4-{[4-(methylsulfonyl)piperazin-1-yl]carbonyl}phenyl)-1H-1,2,3-triazol-4-yl]-1H-indazole] and `N#CCCN1CCN(C(=O)c2ccc(-n3cc(-c4n[nH]c5ccccc45)nn3)cc2)CC1` [Example 57, 3-(4-(4-[4-(1H-indazol-3-yl)-1H-1,2,3-triazol-1-yl]benzoyl}piperazin-1-yl)propanenitrile] fall in the same range of IC50: 100 to 1000 nM for the first, 100 to 1000 nM for the second.

`CCN(CC)CCNC(=O)c1ccc(-n2cc(-c3n[nH]c4ccccc34)nn2)cc1` [Example 46, N-[2-(diethylamino)ethyl]-4-[4-(1H-indazol-3-yl)-1H-1,2,3-triazol-1-yl]benzamide] and `CCC(O)CNC(=O)c1ccc(-n2cc(-c3n[nH]c4ccccc34)nn2)cc1` (stereo not shown) [Example 119, N-(2-hydroxybutyl)-4-[4-(1H-indazol-3-yl)-1H-1,2,3-triazol-1-yl]benzamide] fall in the same range of IC50: 100 to 1000 nM for the first, 100 to 1000 nM for the second.

`CCN1CCCC1CNC(=O)c1ccc(-n2cc(-c3n[nH]c4ccccc34)nn2)cc1` (stereo not shown) [Example 47, N-[(1-ethylpyrrolidin-2-yl)methyl]-4-[4-(1H-indazol-3-yl)-1H-1,2,3-triazol-1-yl]benzamide] and `CN1CCCC1CCNC(=O)c1ccc(-n2cc(-c3n[nH]c4ccccc34)nn2)cc1` (stereo not shown) [Example 90, 4-[4-(1H-indazol-3-yl)-1H-1,2,3-triazol-1-yl]-N-[2-(1-methylpyrrolidin-2-yl)ethyl]benzamide] fall in the same range of IC50: 100 to 1000 nM for the first, 100 to 1000 nM for the second.

`CC1CCCCN1CCCNC(=O)c1ccc(-n2cc(-c3n[nH]c4ccccc34)nn2)cc1` (stereo not shown) [Example 56] and `CCC1CCCCN1CCCNC(=O)c1ccc(-n2cc(-c3n[nH]c4ccccc34)nn2)cc1` (stereo not shown) [Example 59, N-[3-(2-ethylpiperidin-1-yl)propyl]-4-[4-(1H-indazol-3-yl)-1H-1,2,3-triazol-1-yl]benzamide] fall in the same range of IC50: 100 to 1000 nM for the first, 100 to 1000 nM for the second.

First: O=C(NCCCN1CCOCC1)c1cccc(-n2cc(-c3n[nH]c4ccccc34)nn2)c1 [Example 58, 3-[4-(1H-indazol-3-yl)-1H-1,2,3-triazol-1-yl]-N-(3-morpholin-4-ylpropyl)benzamide]
Second: O=C(NCCCN1CCCCC1)c1cccc(-n2cc(-c3n[nH]c4ccccc34)nn2)c1 [Example 63, 3-[4-(1H-indazol-3-yl)-1H-1,2,3-triazol-1-yl]-N-(3-piperidin-1-ylpropyl)benzamide]
The IC50 of the first is lower: 100 to 1000 nM for the first, 1000 to 5000 nM for the second. The first is the more potent here.

`O=C(NCCCN1CCCC1=O)c1ccc(-n2cc(-c3n[nH]c4ccccc34)nn2)cc1` [Example 61, 4-[4-(1H-indazol-3-yl)-1H-1,2,3-triazol-1-yl]-N-[3-(2-oxopyrrolidin-1-yl)propyl]benzamide] and `CN1CCC(NC(=O)c2ccc(-n3cc(-c4n[nH]c5ccccc45)nn3)cc2)CC1` [Example 116, 4-[4-(1H-indazol-3-yl)-1H-1,2,3-triazol-1-yl]-N-(1-methylpiperidin-4-yl)benzamide] fall in the same range of IC50: 1000 to 5000 nM for the first, 1000 to 5000 nM for the second.

`O=C(NCc1cccc(F)c1)c1ccc(-n2cc(-c3n[nH]c4ccccc34)nn2)cc1` [Example 62, N-(3-fluorobenzyl)-4-[4-(1H-indazol-3-yl)-1H-1,2,3-triazol-1-yl]benzamide] and `COCCNC(=O)c1cccc(-n2cc(-c3n[nH]c4ccccc34)nn2)c1` [Example 65, 3-[4-(1H-indazol-3-yl)-1H-1,2,3-triazol-1-yl]-N-(2-methoxyethyl)benzamide] fall in the same range of IC50: 1000 to 5000 nM for the first, 1000 to 5000 nM for the second.

First: CN(CCNC(=O)c1cccc(-n2cc(-c3n[nH]c4ccccc34)nn2)c1)C1CCCCC1 [Example 64, N-{2-[cyclohexyl(methyl)amino]ethyl}-3-[4-(1H-indazol-3-yl)-1H-1,2,3-triazol-1-yl]benzamide]
Second: O=C(c1ccc(-n2cc(-c3n[nH]c4ccccc34)nn2)cc1)N(CCO)C1CCCCC1 [Example 107, N-cyclohexyl-N-(2-hydroxyethyl)-4-[4-(1H-indazol-3-yl)-1H-1,2,3-triazol-1-yl]benzamide]
The IC50 of the first is higher: 1000 to 5000 nM for the first, 100 to 1000 nM for the second. The second is the more potent here.

`CC(C)N1CCN(C(=O)c2cccc(-n3cc(-c4n[nH]c5ccccc45)nn3)c2)CC1` [Example 66, 3-(1-{3-[(4-isopropylpiperazin-1-yl)carbonyl]phenyl}-1H-1,2,3-triazol-4-yl)-1H-indazole] and `O=C(c1cccc(-n2cc(-c3n[nH]c4ccccc34)nn2)c1)N1CCCCC1` [Example 67, 3-{1-[3-(piperidin-1-ylcarbonyl)phenyl]-1H-1,2,3-triazol-4-yl}-1H-indazole] fall in the same range of IC50: 1000 to 5000 nM for the first, 1000 to 5000 nM for the second.

`CC(C)NC(=O)c1cccc(-n2cc(-c3n[nH]c4ccccc34)nn2)c1` [Example 68, 3-[4-(1H-indazol-3-yl)-1H-1,2,3-triazol-1-yl]-N-isopropylbenzamide] and `O=C(CCc1cccc(-n2cc(-c3n[nH]c4ccccc34)nn2)c1)N1CCCC1` [Example 87, 3-{1-[3-(3-oxo-3-pyrrolidin-1-ylpropyl)phenyl]-1H-1,2,3-triazol-4-yl}-1H-indazole] fall in the same range of IC50: 1000 to 5000 nM for the first, 1000 to 5000 nM for the second.

First: O=C(c1cccc(-n2cc(-c3n[nH]c4ccccc34)nn2)c1)N1CCCC(CN2CCCC2)C1 (stereo not shown) [Example 69, 3-[1-(3-{[3-(pyrrolidin-1-ylmethyl)piperidin-1-yl]carbonyl}phenyl)-1H-1,2,3-triazol-4-yl]-1H-indazole]
Second: CC(=O)N1CCC(c2ccc(-n3cc(-c4n[nH]c5ccccc45)nn3)cc2)CC1 [Example 134, 3-{1-[4-(1-acetylpiperidin-4-yl)phenyl]-1H-1,2,3-triazol-4-yl}-1H-indazole]
The IC50 of the first is higher: 1000 to 5000 nM for the first, 100 to 1000 nM for the second.

`O=C(c1ccc(-n2cc(-c3n[nH]c4ccc(Br)cc34)nn2)cc1)N1CCOCC1` [Example 122, 5-bromo-3-{1-[4-(morpholin-4-ylcarbonyl)phenyl]-1H-1,2,3-triazol-4-yl}-1H-indazole] and `CC(C)=Cc1ccc2[nH]nc(-c3cn(-c4ccc(C(=O)N5CCC(N(C)C)CC5)cc4)nn3)c2c1` [Example 138, N,N-dimethyl-1-(4-{4-[5-(2-methylprop-1-en-1-yl)-1H-indazol-3-yl]-1H-1,2,3-triazol-1-yl}benzoyl)piperidin-4-amine] fall in the same range of IC50: 100 to 1000 nM for the first, 100 to 1000 nM for the second.

`C1=C(c2ccc(-n3cc(-c4n[nH]c5ccccc45)nn3)cc2)CCNC1` [Example 131, hydrochloride] and `OC1CNCCC1c1ccc(-n2cc(-c3n[nH]c4ccccc34)nn2)cc1` (stereo not shown) [Example 137, 4-{4-[4-(1H-indazol-3-yl)-1H-1,2,3-triazol-1-yl]phenyl}piperidin-3-ol hydrochloride] fall in the same range of IC50: 100 to 1000 nM for the first, 100 to 1000 nM for the second.

`FCCN1CCC(c2ccc(-n3cc(-c4n[nH]c5ccccc45)nn3)cc2)CC1` [Example 133, 3-(1-{4-[1-(2-fluoroethyl)piperidin-4-yl]phenyl}-1H-1,2,3-triazol-4-yl)-1H-indazole] and `Fc1ccc2c(-c3cn(-c4ccc(C5CCN(CCC(F)(F)F)CC5)cc4)nn3)n[nH]c2c1` [Example 135, 6-fluoro-3-(1-{4-[1-(3,3,3-trifluoropropyl)piperidin-4-yl]phenyl}-1H-1,2,3-triazol-4-yl)-1H-indazole] fall in the same range of IC50: 100 to 1000 nM for the first, 100 to 1000 nM for the second.
